Laboratory results taken from patent US20230174988A1, “METHODS FOR INDUCING BILE ACID SULFOTRANSFERASE SULT2A FOR TREATING METABOLIC DISORDERS” (priority 2020, published 2023).
Entries after “also recorded” stand apart in the source; their conditions may differ. Like-named read-outs stand apart in the source and are kept apart here.

What was measured:
in vivo = settings: mouse, 1 mg
macrophage = macrophage cell viability; format: cell-based
Caco-2 cells = experiment: cell viability of Caco-2 cells; format: cell-based, human; settings: concentrations up to 3 mM
[1] = stability after incubation at 37° C. in buffer at physiological pHs (UPLC-MS); format: physicochemical
DIO mice [2] = experiment: acute treatment of DIO mice via duodenal and rectal catheters: GLP-1 and blood glucose; format: in vivo, mouse; settings: HFD-fed (DIO) mice, 1 mg CA7S vs PBS, within 15 min
NCI-H716 cells [3] = experiment: intracellular calcium levels in NCI-H716 cells; format: cell-based, human; settings: NCI-H716 (L-cells)
macrophages = experiment: IL-10 secretion from macrophages in vitro; format: cell-based
NF-kB = NF-kB reporter assay in THP1-Blue cells; format: cell-based, human; settings: LPS-induced inflammation
NCI-H716 cells [4] = experiment: GLP-1 secretion in NCI-H716 cells in vitro; format: cell-based, human; settings: for GLP-1 secretion in vitro by CA7S extracted from cecal contents of SG mice: purified CA7S 500 μM vs DMSO
Source text: TGR5 agonism also results in elevated intracellular calcium levels^19.

SULT2A1 = SULT2A1 expression in HepG2 cells (qRT-PCR); format: cell-based; settings: normalized to human GAPDH
TGR5 = target: T1, TGR5 (Homo sapiens, UniProt Q8TDU6); experiment: relative TGR5 expression (FIG. 40); format: cell-based
T1 sequence (Q8TDU6 1-330): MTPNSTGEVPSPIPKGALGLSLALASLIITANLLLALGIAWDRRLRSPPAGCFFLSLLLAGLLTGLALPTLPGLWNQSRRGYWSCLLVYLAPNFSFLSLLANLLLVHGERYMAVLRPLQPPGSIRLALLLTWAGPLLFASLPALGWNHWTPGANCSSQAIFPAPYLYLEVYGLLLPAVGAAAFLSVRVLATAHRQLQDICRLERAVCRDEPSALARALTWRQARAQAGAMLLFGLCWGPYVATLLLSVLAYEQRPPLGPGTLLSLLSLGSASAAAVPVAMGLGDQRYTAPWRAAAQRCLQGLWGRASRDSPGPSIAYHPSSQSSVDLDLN
Source text: FIG. 40B-D show the relative TGR5 expression of the various compounds.

GF mice = GF mice administered 0.3% LCA (w/w) in chow for 1 week; format: in vivo, mouse; settings: 0.3% LCA in chow
ASBT = ASBT expression in Caco-2 cells; format: cell-based, human; set-up: dose or concentration left out as unconfirmed; settings: LCA
DIO mice [5] = experiment: portal vein injection of LCA in DIO mice; format: in vivo, mouse; settings: LCA 50 μM into portal vein
[6] = HFD-fed mice, acute cholic acid 7-sulfate treatment
[7] = listed as Cholic acid 7-sulfate
[8] = listed as cholic acid 7-sulfate

C[C@H](CCC(=O)O)[C@H]1CC[C@H]2[C@@H]3[C@H](OS(=O)(=O)O)C[C@@H]4C[C@H](O)CC[C@]4(C)[C@H]3C[C@H](O)[C@]12C [CA7S, cholic acid 7-sulfate]
inflammation in vivo (inflammation in vivo): improves inflammation in vivo
concentration at 15 min (in vivo; Cholic acid 7-sulfate concentration (mean ± SEM), Blood, HFD-fed mice, acute cholic acid 7-sulfate treatment): 0.495 ± 0.167 µM
concentration at 15 min (in vivo; cholic acid 7-sulfate in the cecum, dosing with 1 mg): ~2500 µM
Cholic acid 7-sulfate concentration (mean ± SEM), Cecum [6]: 2577 ± 185.3 pmol/mg
Cholic acid 7-sulfate concentration (mean ± SEM), Hepatic portal vein [6]: 6.128 ± 2.111 pmol/mg
CA7S in cecal contents (administration of 1 mg, on average): 2500 pmol/mg wet mass
leak into systemic circulation and portal vein (gut restriction) (ectopic introduction in mice, listed as cholic acid 7-sulfate): only minor amounts
macrophage cell viability (macrophage): does not affect macrophage cell viability
toxicity / viability of intestinal Caco-2 cells (Caco-2 cells): does not affect the viability
toxicity / viability of intestinal Caco-2 cells (Caco-2 cells; [7]): no toxicity
stability at physiological pHs [1]: stable at physiological pHs
stability at physiological pHs [1, 7]: stable in a wide range of pHs
blood glucose levels (DIO mice [2]): reduced blood glucose levels
systemic GLP-1 levels (DIO mice [2]): increased systemic GLP-1 levels
systemic GLP-1 levels (DIO mice [2]; [8]): induced GLP-1 levels
intracellular calcium levels (NCI-H716 cells [3]): dose-dependent increase in calcium levels
intracellular calcium levels (NCI-H716 cells [3]; [7]): increased calcium levels
IL-10 secretion (macrophages): induces secretion of the anti-inflammatory cytokine IL-10
NFkB activation (NF-kB): reduces NFkB activation
GLP-1 secretion in vitro (NCI-H716 cells [4]): induced GLP-1 secretion to a similar degree as TDCA in a dose-dependent manner
GLP-1 secretion in vitro (NCI-H716 cells [4]; [7]): induces GLP-1 secretion in vitro better than the known GLP-1 inducer TDCA
GLP-1 secretion in vitro by CA7S extracted from cecal contents of SG mice (NCI-H716 cells [4]): induced GLP-1 secretion in vitro
GLP-1 secretion in vitro by CA7S extracted from cecal contents of SG mice (NCI-H716 cells [4]; [8]): exhibit activity inducing GLP-1 secretion in vitro

C[C@H](CCC(=O)O)[C@H]1CC[C@H]2[C@@H]3[C@H](O)C[C@@H]4C[C@H](O)CC[C@]4(C)[C@H]3C[C@H](O)[C@]12C [CA, cholic acid, reference compound]
SULT2A1 expression (SULT2A1): did not induce SULT2A1 expression at all concentrations tested
GLP-1 secretion in vitro (NCI-H716 cells [4]): had no effect on GLP-1 secretion
GLP-1 secretion in vitro (NCI-H716 cells [4]; listed as cholic acid): had no effect

C[C@H](CCC(=O)O)[C@H]1CC[C@H]2[C@@H]3[C@H](O)C[C@@H]4C[C@H](O)CC[C@]4(C)[C@H]3CC[C@]12C [CDCA, chenodeoxycholic acid]
SULT2A1 expression (SULT2A1): did not induce SULT2A1 expression at all concentrations tested

COC(=O)CC[C@@H](C)[C@H]1CC[C@H]2[C@@H]3[C@H](NS(=O)(=O)O)[C@@H](O[Si](C)(C)C(C)(C)C)[C@@H]4C[C@H](O[Si](C)(C)C(C)(C)C)CC[C@]4(C)[C@H]3CC[C@]12C [Compound 3-8]
TGR5 expression (TGR5): induces TGR5 expression

C[C@H](CCC(=O)O)[C@H]1CC[C@H]2[C@@H]3[C@H](OP(=O)(O)O)C[C@@H]4C[C@H](O)CC[C@]4(C)[C@H]3C[C@H](O)[C@]12C [Compound 9, cholic acid-7-phosphate]
TGR5 expression (TGR5): induces TGR5 expression

COC(=O)CC[C@@H](C)[C@H]1CC[C@H]2[C@@H]3[C@H](OP(=O)(OCc4ccccc4)OCc4ccccc4)C[C@@H]4C[C@H](O[Si](C)(C)C(C)(C)C)CC[C@]4(C)[C@H]3CC[C@]12C [Compound 9-2]
TGR5 expression (TGR5): induces TGR5 expression

C[C@H](CCC(=O)O)[C@H]1CC[C@H]2[C@@H]3CC[C@@H]4C[C@H](O)CC[C@]4(C)[C@H]3CC[C@]12C [LCA, 3α-hydroxy-5β-cholan-24-oic acid]
SULT2A1 expression (SULT2A1): induced SULT2A1; also recorded: could induce SULT2A1 expression in a dose dependent manner
Asbt expression in SI and DI (GF mice): inhibited expression of Asbt in SI and DI
VDR expression in liver (GF mice): increased expression
mSult2A1 expression in liver (GF mice): increased expression
LCA levels in intestine after feeding (GF mice; 1 week): accumulation of LCA in the proximal small intestine (SI), distal ileum (DI), and cecum
CA7S production and accumulation (GF mice; gallbladder and distal ileum): induced CA7S production and accumulation in the gallbladder (GB) and the DI
ASBT expression (ASBT): inhibited expression of ASBT
CA7S levels in the gallbladder (DIO mice [5]): increase in CA7S levels in the gallbladder
SULT2A1 expression level in mouse liver (DIO mice [5]; two hours after injection): significant increase
VDR expression level in mouse liver (DIO mice [5]; two hours after injection): significant increase

C[C@H](CCC(=O)NCCS(=O)(=O)O)[C@H]1CC[C@H]2[C@@H]3CC[C@@H]4C[C@H](O)CC[C@]4(C)[C@H]3C[C@H](O)[C@]12C [TCDCA, taurodeoxycholic acid]
SULT2A1 expression (SULT2A1): did not induce SULT2A1 expression at all concentrations tested
